Laboratory results: PubChem BioAssay (NCI)
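Five compound concentrations were applied to cells in 96-well plates for 48 hours; endpoints were derived by simple linear interpolation of the resulting dose-response curve. GI50: concentration for 50% inhibition of growth. Definition used: TGI = concentration required for complete inhibition of growth.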

Legend:
Assay in all cases: growth of human tumour cells (NCI), 48 h
CAKI-1 renal = test system: CAKI-1 renal
PC-3 prostate = test system: PC-3 prostate
HS 578T breast = test system: HS 578T breast
OVCAR-3 ovarian = test system: OVCAR-3 ovarian
COLO 205 colon = test system: COLO 205 colon
MDA-MB-435 = test system: MDA-MB-435
SK-MEL-5 melanoma = test system: SK-MEL-5 melanoma
SK-MEL-28 melanoma = test system: SK-MEL-28 melanoma
SK-MEL-2 melanoma = test system: SK-MEL-2 melanoma
SF-268 CNS = test system: SF-268 CNS
IGROV1 ovarian = test system: IGROV1 ovarian
OVCAR-8 ovarian = test system: OVCAR-8 ovarian
A498 renal = test system: A498 renal
NCI-H522 lung = test system: NCI-H522 lung
HCC-2998 colon = test system: HCC-2998 colon
SF-539 CNS = test system: SF-539 CNS
U251 CNS = test system: U251 CNS
OVCAR-4 ovarian = test system: OVCAR-4 ovarian
UO-31 renal = test system: UO-31 renal
SR leukemia = test system: SR leukemia
BT-549 breast = test system: BT-549 breast
DU-145 prostate = test system: DU-145 prostate
LOX IMVI melanoma = test system: LOX IMVI melanoma
MDA-MB-231 breast = test system: MDA-MB-231 breast
HOP-92 NSCLC = test system: HOP-92 NSCLC
CCRF-CEM leukemia = test system: CCRF-CEM leukemia
NCI-H226 lung = test system: NCI-H226 lung
HOP-62 NSCLC = test system: HOP-62 NSCLC
SNB-19 CNS = test system: SNB-19 CNS
SN12C renal = test system: SN12C renal
MALME-3M melanoma = test system: MALME-3M melanoma
M14 melanoma = test system: M14 melanoma
NCI-H23 lung = test system: NCI-H23 lung
NCI/ADR-RES ovarian = test system: NCI/ADR-RES ovarian
786-0 renal = test system: 786-0 renal
HCT-116 colon = test system: HCT-116 colon
SW-620 colon = test system: SW-620 colon
OVCAR-5 ovarian = test system: OVCAR-5 ovarian
T-47D breast = test system: T-47D breast
ACHN renal = test system: ACHN renal
TK-10 renal = test system: TK-10 renal
KM12 colon = test system: KM12 colon
RPMI-8226 leukemia = test system: RPMI-8226 leukemia
MOLT-4 leukemia = test system: MOLT-4 leukemia
NCI-H460 lung = test system: NCI-H460 lung
A549 NSCLC = test system: A549 NSCLC
HT29 colon = test system: HT29 colon
RXF 393 renal = test system: RXF 393 renal
UACC-257 melanoma = test system: UACC-257 melanoma
K-562 leukemia = test system: K-562 leukemia
HCT-15 colon = test system: HCT-15 colon
SNB-75 CNS = test system: SNB-75 CNS
SK-OV-3 ovarian = test system: SK-OV-3 ovarian
SF-295 CNS = test system: SF-295 CNS
MCF7 breast = test system: MCF7 breast
UACC-62 melanoma = test system: UACC-62 melanoma

COc1cccc(NC(=O)c2sc3nc4c(cc3c2N)CN(Cc2ccccc2)CC4)c1
GI50 (CAKI-1 renal): 11.7 µM
TGI (CAKI-1 renal): > 100 µM
GI50 (PC-3 prostate): 11.6 µM
TGI (PC-3 prostate): 91.1 µM
GI50 (HS 578T breast): 2140 nM
TGI (HS 578T breast): 23 µM
GI50 (OVCAR-3 ovarian): 7.53 µM
TGI (OVCAR-3 ovarian): 26.9 µM
GI50 (COLO 205 colon): 7.55 µM
TGI (COLO 205 colon): 54.5 µM
GI50 (MDA-MB-435): 296 nM
TGI (MDA-MB-435): 11 µM
GI50 (SK-MEL-5 melanoma): 2150 nM
TGI (SK-MEL-5 melanoma): 31.9 µM
GI50 (SK-MEL-28 melanoma): 2800 nM
TGI (SK-MEL-28 melanoma): 29.7 µM
GI50 (SK-MEL-2 melanoma): 10.3 µM
TGI (SK-MEL-2 melanoma): 44.5 µM
GI50 (SF-268 CNS): 3.66 µM
TGI (SF-268 CNS): 20.7 µM
GI50 (IGROV1 ovarian): 18.5 µM
TGI (IGROV1 ovarian): > 100 µM
GI50 (OVCAR-8 ovarian): 4.45 µM
TGI (OVCAR-8 ovarian): 85.2 µM
GI50 (A498 renal): 3.82 µM
TGI (A498 renal): 24.4 µM
GI50 (NCI-H522 lung): 15.1 µM
TGI (NCI-H522 lung): > 100 µM
GI50 (HCC-2998 colon): 9.13 µM
TGI (HCC-2998 colon): > 100 µM
GI50 (SF-539 CNS): 1990 nM
TGI (SF-539 CNS): 6.56 µM
GI50 (U251 CNS): 2740 nM
TGI (U251 CNS): 19.2 µM
GI50 (OVCAR-4 ovarian): 2680 nM
TGI (OVCAR-4 ovarian): 19.7 µM
GI50 (UO-31 renal): 3.27 µM
TGI (UO-31 renal): 32.3 µM
GI50 (SR leukemia): 453 nM
TGI (SR leukemia): 47.7 µM
GI50 (BT-549 breast): 2830 nM
TGI (BT-549 breast): 26.2 µM
GI50 (DU-145 prostate): 5.22 µM
TGI (DU-145 prostate): 22.2 µM
GI50 (LOX IMVI melanoma): 4.09 µM
TGI (LOX IMVI melanoma): 43.5 µM
GI50 (MDA-MB-231 breast): 11.4 µM
TGI (MDA-MB-231 breast): 75.3 µM
GI50 (HOP-92 NSCLC): 2210 nM
TGI (HOP-92 NSCLC): 24.1 µM
GI50 (CCRF-CEM leukemia): 29.5 µM
TGI (CCRF-CEM leukemia): > 100 µM
GI50 (NCI-H226 lung): 6.03 µM
TGI (NCI-H226 lung): 38.3 µM
GI50 (HOP-62 NSCLC): 1830 nM
TGI (HOP-62 NSCLC): 6.47 µM
GI50 (SNB-19 CNS): 4.75 µM
TGI (SNB-19 CNS): > 100 µM
GI50 (SN12C renal): 11.2 µM
TGI (SN12C renal): > 100 µM
GI50 (MALME-3M melanoma): 1430 nM
TGI (MALME-3M melanoma): 16.6 µM
GI50 (M14 melanoma): 12.7 µM
TGI (M14 melanoma): 86.8 µM
GI50 (NCI-H23 lung): 7.18 µM
TGI (NCI-H23 lung): 49.2 µM
GI50 (NCI/ADR-RES ovarian): 2400 nM
TGI (NCI/ADR-RES ovarian): 33.3 µM
GI50 (786-0 renal): 3.61 µM
TGI (786-0 renal): 20.8 µM
GI50 (HCT-116 colon): 1740 nM
TGI (HCT-116 colon): > 100 µM
GI50 (SW-620 colon): 1850 nM
TGI (SW-620 colon): 72.2 µM
GI50 (OVCAR-5 ovarian): 36.9 µM
TGI (OVCAR-5 ovarian): > 100 µM
GI50 (T-47D breast): 4.62 µM
TGI (T-47D breast): 47.3 µM
GI50 (ACHN renal): 3.46 µM
TGI (ACHN renal): 64.5 µM
GI50 (TK-10 renal): 4.82 µM
TGI (TK-10 renal): 21.6 µM
GI50 (KM12 colon): 11.8 µM
TGI (KM12 colon): 40.3 µM
GI50 (RPMI-8226 leukemia): 38.9 µM
TGI (RPMI-8226 leukemia): > 100 µM
GI50 (MOLT-4 leukemia): 21.9 µM
TGI (MOLT-4 leukemia): > 100 µM
GI50 (NCI-H460 lung): 4.18 µM
TGI (NCI-H460 lung): 30.9 µM
GI50 (A549 NSCLC): 3.79 µM
TGI (A549 NSCLC): 53.8 µM
GI50 (HT29 colon): 3.75 µM
TGI (HT29 colon): 15.2 µM
GI50 (RXF 393 renal): 2710 nM
TGI (RXF 393 renal): 12.9 µM
GI50 (UACC-257 melanoma): 6.52 µM
TGI (UACC-257 melanoma): > 100 µM
GI50 (K-562 leukemia): 530 nM
TGI (K-562 leukemia): > 100 µM
GI50 (HCT-15 colon): 930 nM
TGI (HCT-15 colon): > 100 µM
GI50 (SNB-75 CNS): 1730 nM
TGI (SNB-75 CNS): 4.71 µM
GI50 (SK-OV-3 ovarian): 2780 nM
TGI (SK-OV-3 ovarian): 14 µM
GI50 (SF-295 CNS): 3.05 µM
TGI (SF-295 CNS): 19.4 µM
GI50 (MCF7 breast): 620 nM
TGI (MCF7 breast): > 100 µM
GI50 (UACC-62 melanoma): 1920 nM
TGI (UACC-62 melanoma): 29.8 µM
